According to US7538252B2, “Drug design for tubulin inhibitors, compositions, and methods of treatment thereof” (BiPar Sciences, Inc., priority 2006, dated 2009):

Legend:
TNF-alpha mRNA = TNF-alpha mRNA level in LPS-stimulated PU5-1.8 macrophages (Northern blot); format: cell-based, murine
Procedure: This example provides an assay that can be used to screen compounds of Formula I for their ability to reduce the expression of cytokines (e.g., TNF-alpha) in a mammal.
The murine macrophage PU5-1.8 cell line is purchased from the American Type Culture Collection (ATCC, Rockville, Md.). Cells are grown in DMEM medium supplemented with […] sodium pyruvate, 0.1 mM nonessential amino acids, 2 mM glutamine and 5% fetal bovine serum (Life Technologies, Staten Island, N.Y.). Cells are maintained in a humidified atmosphere of 5% CO2-95% air at 37° C. Cells are passaged twice weekly by firmly tapping the side of the flask to dislodge the adherent cells. Both non-adherent and adherent cells are passaged. Exponentially growing cells are seeded at 5×10^5/mL, 4 mL per 60-mm dish 24 h prior to the experiment. Test compounds are delivered in 1 mL volumes of the medium added to each dish at the start of the experiment. All dishes are incubated at 37° C. in 5% CO2-95% air for 3 h.
The Tumor Necrosis Factor (TNF-alpha) cDNA is obtained from the ATCC (Rockville, Md.). […]
Hybridized bands are quantified by analyzing the images obtained by using a video densitometer (Applied Imaging Corporation, Santa Clara, Calif.). […]
Treatment of PU5-1.8 murine macrophages with LPS (100 ng/mL) for 3 h results in a significant increase (>7 fold) in the level of TNF-alpha mRNA as determined by Northern blot analysis. […]

HCT116 and Hela cells = assay: Cell cycle analysis by flow cytometry; format: cell-based; settings: FIG. 6, compared to control DIPE
Procedure: (§1) HCT116 and Hela cells were obtained from ATCC. For DNA content analysis, 2×10^5 cells were washed twice with PBS and fixed in 70% ethanol. Cells were treated with 100 units/mL RNase A for 20 minutes at 37° C., resuspended in cold PBS containing Alexa Fluor® 405 fluorescent stain (Invitrogen) according to the manufacturer's protocol. Cells were analyzed by flow cytometry.
For DNA replication analysis, 2×10^5 cells were incubated with 50 μmol/L bromodeoxyuridine (BrdUrd) for 30 minutes. Cells were fixed in 70% ethanol and BrdUrd incorporation was determined by flow cytometric analysis using an anti-BrdUrd-FITC antibody (Becton Dickinson, Franklin Lakes, N.J.) according to the manufacturer's protocol. To assess the degree of G2/M checkpoint, mitotic cells were detected by flow cytometry using the mitosis-specific antibody GF-7. Fixed cells were incubated for 30 minutes with GF7-phycoerythrin (PE) antibody (BD Biosciences Pharmingen), washed with PBS and analyzed by flow cytometry. FIG. 6 compares the results obtained with DIPE and formula IIIB.

HeLa cells = assay: TUNEL apoptosis assay with flow cytometry; format: cell-based; settings: FIG. 7, compared to control DIPE
Excerpt: Programmed cell death (apoptosis) is an important homeostatic mechanism in the immune and other systems. The phenomenon of nuclear disintegration during apoptosis can be used as a marker to detect cells undergoing this process. While a variety of methods are available to detect apoptotic cells the TUNEL assay allows the rapid phenotypic identification of individual apoptotic cells using flow cytometry (FACS). Terminal transferase dUTP nick end labeling (TUNEL) is a common method for detecting DNA fragmentation that results from apoptosis. The assay based on the presence of nicks in the DNA that can be identified by terminal transferase, an enzyme that will catalyze the addition of dUTPs that are secondarily labeled with a marker. It may also label cells undergoing necrosis or cells that have suffered severe DNA damage.
as §1, with “Hela” for “HCT116 and Hela”, “cytometry to characterize the cell cycle. […]” for “cytometry.”

Structure (SMILES)	inhibition of TNF-alpha mRNA accumulation (TNF-alpha mRNA; 10 μM added to LPS (100 ng/mL) treated cultures, 3 h) [%]	effect on TNF-alpha mRNA expression (TNF-alpha mRNA; 10 μM, cells without LPS)	cell-cycle arrest (HCT116 and Hela cells)	induction of apoptosis (HeLa cells)
COc1cc2c(c(OC)c1OC)-c1ccc(OC)c(=O)cc1[C@@H](NC(C)=O)CC2 [colchicine]	68	no effect	–	–
COc1ccc(Oc2c(I)cc(C(C)=O)cc2I)cc1N [Formula IIIB, 1-(4-(3-amino-4-methoxyphenoxy)-3,5-diiodophenyl)ethanone]	–	–	cell-cycle arrest	induction of apoptosis
